In the test the target is T1, Human PPARδ (Homo sapiens, UniProt Q03181).
T1 construct: The full length human cDNA for PPARγ2 and PPARδ were subcloned into the PGEX-2T and PGEX-KT, respectively, expression vector; made in house; host or cells: E. coli
T1 sequence (Q03181 1-441): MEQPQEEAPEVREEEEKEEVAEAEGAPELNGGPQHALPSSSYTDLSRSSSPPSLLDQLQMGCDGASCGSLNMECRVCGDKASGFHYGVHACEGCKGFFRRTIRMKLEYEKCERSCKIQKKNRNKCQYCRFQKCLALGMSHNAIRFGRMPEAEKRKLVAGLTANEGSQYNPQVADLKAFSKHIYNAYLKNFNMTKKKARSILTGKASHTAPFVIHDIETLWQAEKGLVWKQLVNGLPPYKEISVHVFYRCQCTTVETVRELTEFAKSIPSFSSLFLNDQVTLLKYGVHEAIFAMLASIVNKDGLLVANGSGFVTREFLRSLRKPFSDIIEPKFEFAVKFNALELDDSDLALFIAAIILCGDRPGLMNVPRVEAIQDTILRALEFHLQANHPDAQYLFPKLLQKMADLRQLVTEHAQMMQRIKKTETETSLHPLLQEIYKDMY
As to the kind of experiment: [3H2]Example 11 displacement assay (PPAR receptor binding assay). How it is done: Human PPARγ2 and PPARδ, independently, were prepared as gst-fusion proteins in E. coli. The full length human cDNA for PPARγ2 and PPARδ were subcloned into the PGEX-2T and PGEX-KT, respectively, expression vector (Pharmacia). E. coli containing the plasmid were grown, induced, and then harvested by centrifugation. The resuspended pellet was broken in a French press and debris was removed by centrifugation at 12,000Xg. Receptors were purified from the supernatant by affinity chromatography on glutathione sepharose. After application to the column, and 1 wash, receptor was eluted with glutathione. Glycerol was added to stabilize the receptor and aliquots were frozen at -80 °C for later use.
Assays were incubated for ∼ 16 h at 4 °C in a final volume of 300 µl. Unbound ligand was removed by addition of 200 µl dextran/gelatin-coated charcoal, on ice, for ∼10 minutes. After centrifugation at 3000 rpm for 10 min at 4 °C, 200 µl of the supernatant fraction was counted in a liquid scintillation counter.

Structures are written as SMILES.

For orientation: Kd means the constant that tells how readily two partners part at equilibrium. Read a high Kd as lower affinity.

On to `CCCc1c(OCCCSc2ccc(CC(=O)O)cc2Cl)ccc2oc3ccccc3c12` [Example 11, 3-Chloro-4-(1-propyl-dibenzofuranyl-2-oxy-propylthio)-phenylacetic acid], for which binding was characterised by a dissociation constant (Kd) of 1 nM.
